Data from ChEMBL document CHEMBL5055641, “First Total Synthesis and Structure-Activity Relationship of Iheyamide A, an Antitrypanosomal Linear Peptide Isolated from a Dapis sp. Marine Cyanobacterium” (J Nat Prod, 2021).

What was measured:
[1] = tested on: Trypanosoma brucei rhodesiense; experiment: Antitrypanosomal activity against Trypanosoma brucei rhodesiense IL-1501 assessed as inhibition of parasitic growth incubated for 69 hrs by resazurin dye based fluorescence assay; assay type: functional, organism-based; settings: IL-1501, 69 h
WI-38 = experiment: Cytotoxicity against human WI-38 cells assessed as inhibition of cell proliferation incubated for 72 hrs by MTT assay; assay type: cell-based; settings: WI-38, 72 h

Row | SMILES | IC50 [1] [µM] | IC50 (WI-38) [µM]
1 | COC1=CC(=O)N[C@H]1C(C)C | 35 | > 50
2 | CC[C@H](C)[C@@H](C(=O)N1CCC[C@@H]1C(=O)N1C(=O)C=C(OC)[C@@H]1C(C)C)N(C)C(=O)[C@@H]1CCCN1C(=O)[C@H](C(C)C)N(C)C(=O)[C@@H](Cc1ccccc1)NC(=O)[C@H](Cc1ccccc1)N(C)C | 1.8 | > 20
3 | CC[C@H](C)[C@H](NC)C(=O)N1CCCC1C(=O)N1C(=O)C=C(OC)[C@@H]1C(C)C (single isomer, unassigned) | 24 | > 50
4 | COC1=CC(=O)N(C(=O)C2CCCN2)[C@H]1C(C)C (single isomer, unassigned) | 33 | > 50
5 | CC[C@H](C)[C@@H](C(=O)N1CCCC1C(=O)N1C(=O)C=C(OC)[C@@H]1C(C)C)N(C)C(=O)[C@@H]1CCCN1 (single isomer, unassigned) | 15 | > 50
6 | CC[C@H](C)[C@@H](C(=O)N1CCCC1C(=O)N1C(=O)C=C(OC)[C@@H]1C(C)C)N(C)C(=O)[C@@H]1CCCN1C(=O)[C@@H](NC)C(C)C (single isomer, unassigned) | 17 | > 50
7 | N=C(N)c1ccc(OCCCCCOc2ccc(C(=N)N)cc2)cc1 [PENTAMIDINE] | 0.005 | 
